According to ChEMBL document CHEMBL5120920, “A Mitochondria-Targeted Phenylbutyric Acid Prodrug Confers Drastically Improved Anticancer Activities” (J Med Chem, 2022):
Active and inactive are the calls of the source. The rule behind the calls is not given here.

Legend:
A-375 [1] = test: Induction of apoptosis in human A-375 cells assessed as apoptotic cells at 10 uM measured at 72 hrs by Annexin V FITC/PI staining based flow cytometry analysis relative to control; type: functional
[2] = Toxicity in BALB/c mouse assessed as animal death at 50 to 100 mg/kg, […] measured after 7 days; type: organism-based; settings: in vivo, 168 h, dose 50-100 mg/kg, time 7 day
MCF7 = test: Induction of mitochondrial membrane hyperpolarization in human MCF7 cells assessed as JC-1 level at 2.5 to 10 uM incubated for 4 hrs by JC-1 staining based flow cytometry analysis relative to control; type: functional; settings: dose 2.5-10 µM
[3] = Apparent permeability across basolateral to apical side in human Caco-2 cells at 2 uM measured after 2 hrs by LC-MS/MS analysis; type: ADME, cell-based
L02 = test: Induction of mitochondrial membrane hyperpolarization in human L02 cells assessed as JC-1 level at 2.5 to 10 uM incubated for 4 hrs by JC-1 staining based flow cytometry analysis relative to control; type: functional; settings: dose 2.5-10 µM
A-375 [4] = test: Antitumor activity against human A-375 cells xenografted in nude mouse assessed as decrease in bcl-2 expression at 40 mg/kg, ip measured once every two days for 14 days by immunohistochemistry assay; type: functional, organism-based; settings: time 14.0 day
A-375 [5] = test: Induction of cell cycle arrest in human A-375 cells assessed as accumulation at G1 phase at 7.5 uM incubated for 24 hrs by PI staining based flow cytometry analysis (reference value: 68.07 %); type: functional
HUVEC = test: Induction of mitochondrial membrane hyperpolarization in HUVEC assessed as JC-1 level at 2.5 to 10 uM incubated for 4 hrs by JC-1 staining based flow cytometry analysis relative to control; type: functional, Homo sapiens; settings: dose 2.5-10 µM
A-375 [6] = test: Inhibition of glycolysis in human A-375 cells assessed as reduction in lactate formation at 0.25 to 5 uM incubated for 8 hrs; type: functional, cell-based; settings: dose 0.25-5 µM
A-375 [7] = test: Induction of apoptosis in human A-375 cells assessed as apoptotic cells at 2.5 uM measured after 48 hrs by Annexin V FITC/PI staining based flow cytometry analysis relative to control; type: functional
A-375 [8] = test: Antitumor activity against human A-375 cells xenografted in nude mouse assessed as induction of apoptosis by measuring morphological changes at 40 mg/kg, ip measured once every two days for 14 days by H and E staining based assay; type: functional, organism-based; settings: time 14.0 day
A-375 [9] = test: Antitumor activity against human A-375 cells xenografted in nude mouse assessed as induction of apoptosis by measuring morphological changes at 40 mg/kg, ip measured once every two days for 14 days by TUNEL assay; type: functional, organism-based; settings: time 14.0 day
A-375 [10] = test: Induction of apoptosis in human A-375 cells assessed as apoptotic cells at 5 uM measured after 48 hrs by Annexin V FITC/PI staining based flow cytometry analysis relative to control; type: functional
[11] = target: Histone deacetylase (Homo sapiens) (UniProt Q13547+O15379+Q9UBN7+Q92769+Q9UQL6+Q8WUI4+Q9BY41+Q96DB2+P56524+Q9UKV0+Q969S8); test: Inhibition of HDAC in human A-375 cells assessed as upregulation of alpha-tubulin acetylation at 5 to 20 uM measured after 24 hrs; type: cell-based; settings: dose 5-20 µM
A-375 [12] = test: Induction of cell cycle arrest in human A-375 cells assessed as accumulation at G2 phase at 5 uM incubated for 24 hrs by PI staining based flow cytometry analysis (reference value: 7.92 %); type: functional
[13] = Toxicity in BALB/c mouse assessed as histopathological changes in lung at 50 to 100 mg/kg, iv measured after 7 days by H and E staining based assay; type: organism-based; settings: in vivo, 168 h, dose 50-100 mg/kg, time 7 day
A-375 [14] = test: Antitumor activity against human A-375 cells implanted in BALB/c mouse assessed as tumor growth inhibition at 40 mg/kg, ip measured once every two days for 14 days; type: functional, organism-based; settings: time 14.0 day
A-375 [15] = test: Inhibition of cell migration in human A-375 cells incubated for 24 hrs by wound healing assay; type: functional, cell-based; settings: dose 1.5-2.5 µM, DDE = dose-dependent effect
[16] = Toxicity in BALB/c mouse assessed as histopathological changes in liver at 50 to 100 mg/kg, iv measured after 7 days by H and E staining based assay; type: organism-based; settings: in vivo, 168 h, dose 50-100 mg/kg, time 7 day
A549 = test: Induction of mitochondrial membrane hyperpolarization in human A549 cells assessed as JC-1 level at 2.5 to 10 uM incubated for 4 hrs by JC-1 staining based flow cytometry analysis relative to control; type: functional; settings: dose 2.5-10 µM
A-375 [17] = test: Inhibition of glycolysis in human A-375 cells assessed as reduction in extracellular acidification rate at 0.25 to 1 uM measured after 4 hrs; type: functional, cell-based; settings: dose 0.25-1 µM
HEK-293T = test: Induction of mitochondrial membrane hyperpolarization in HEK293T cells assessed as JC-1 level at 2.5 to 10 uM incubated for 4 hrs by JC-1 staining based flow cytometry analysis relative to control; type: functional, Homo sapiens; settings: dose 2.5-10 µM
[18] = Toxicity in BALB/c mouse assessed as histopathological changes in spleen at 50 to 100 mg/kg, iv measured after 7 days by H and E staining based assay; type: organism-based; settings: in vivo, 168 h, dose 50-100 mg/kg, time 7 day
A-375 [19] = test: Induction of mitochondrial membrane depolarization in human A-375 cells assessed as reduction in red fluorescence intensity incubated for 4 hrs by TMRM staining based fluorescence microscopy analysis; type: functional, cell-based; settings: dose 2.5-10 µM, DDE = dose-dependent effect
A-375 [20] = test: Effect on mitochondrial bio-energestics in human A-375 cells assessed as increase in OCR/ECRA ratio at 0.25 to 1 uM measured after 4 hrs; type: functional, cell-based; settings: dose 0.25-1 µM
A-375 [21] = test: Induction of cell cycle arrest in human A-375 cells assessed as accumulation at G2 phase at 7.5 uM incubated for 24 hrs by PI staining based flow cytometry analysis (reference value: 7.92 %); type: functional
[22] = Toxicity in BALB/c mouse at 200 mg/kg, iv administered for 7 days; type: organism-based; settings: in vivo, 168 h, time 7 day
[23] = Toxicity in BALB/c mouse assessed as histopathological changes in kidney at 50 to 100 mg/kg, iv measured after 7 days by H and E staining based assay; type: organism-based; settings: in vivo, 168 h, dose 50-100 mg/kg, time 7 day
A-375 [24] = test: Inhibition of colony formation in human A-375 cells preincubated for 72 hrs followed by drug free medium addition for 10 to 14 days by crystal violet staining based analysis; type: functional, cell-based; settings: dose 0.5-1 µM, DDE = dose-dependent effect
[25] = Toxicity in BALB/c mouse assessed as death of animal at 125 to 200 mg/kg, iv administered for 7 days; type: organism-based; settings: in vivo, 168 h, dose 125-200 mg/kg, time 7 day
A-375 [26] = test: Antitumor activity against human A-375 cells xenografted in nude mouse assessed as tumor inhibition ratio at 40 mg/kg, ip measured once every two days for 14 days; type: functional; settings: A-375, 336 h, time 14 day, read-out: TGI
A-375 [27] = test: Antitumor activity against human A-375 cells implanted in BALB/c mouse assessed as shrinkage of tumor tissue at 40 mg/kg, ip measured once every two days for 14 days; type: functional, organism-based; settings: time 14.0 day
A-375 [28] = test: Antitumor activity against human A-375 cells xenografted in nude mouse assessed as reduction in tumor weight at 10 to 40 mg/kg, ip measured once every two days for 14 days; type: functional, organism-based; settings: dose 10-40 mg/kg, time 14.0 day

Question: For `O=C(CCCCCCCCC[P+](c1ccc(C(F)(F)F)cc1)(c1ccc(C(F)(F)F)cc1)c1ccc(C(F)(F)F)cc1)NC(COC(=O)CCCc1ccccc1)(COC(=O)CCCc1ccccc1)COC(=O)CCCc1ccccc1.[Br-]`, which Activity (A-375 [1]) is on record?
Answer: Its Activity is 77%.

Question: And the Activity [2]?
Answer: The Activity was “Non-Toxic”.

Question: What about the Activity (MCF7) of the same compound?
Answer: The Activity was 3.6%.

Question: What about the Papp B→A at 2 h, 2 µM [3] of the same compound?
Answer: The Papp B→A at 2 h, 2 µM was 16.8 ×10⁻⁶ cm/s.

Question: What about the Activity (L02) of the same compound?
Answer: The Activity was 11.49%.

Question: And the Activity (A-375 [4])?
Answer: Its Activity is “Active”.

Question: What about the Activity (A-375 [5]) of the same compound?
Answer: Its Activity is 80.37%.

Question: And the Activity (HUVEC)?
Answer: The Activity was 16.08%.

Question: And the inhibition (A-375 [6])?
Answer: Its inhibition is “Active”.

Question: And the Activity (A-375 [7])?
Answer: Its Activity is 6%.

Question: What about the Activity (A-375 [8]) of the same compound?
Answer: The Activity was “Active”.

Question: What about the Activity (A-375 [9]) of the same compound?
Answer: Its Activity is “Active”.

Question: What about the Activity (A-375 [10]) of the same compound?
Answer: Its Activity is 12%.

Question: What about the inhibition [11] of the same compound?
Answer: The inhibition was “Active”.

Question: And the Activity (A-375 [12])?
Answer: The Activity was 8.85%.

Question: And the Activity [13]?
Answer: Its Activity is “Non-Toxic”.

Question: What about the Activity (A-375 [14]) of the same compound?
Answer: The Activity was “Active”.

Question: And the inhibition (A-375 [15])?
Answer: The inhibition was “Dde”.

Question: And the Activity [16]?
Answer: Its Activity is “Non-Toxic”.

Question: And the Activity (A549)?
Answer: Its Activity is 5.01%.

Question: What about the inhibition (A-375 [17]) of the same compound?
Answer: The inhibition was “Active”.

Question: What about the Activity (HEK-293T) of the same compound?
Answer: The Activity was 18.91%.

Question: What about the Activity [18] of the same compound?
Answer: The Activity was “Non-Toxic”.

Question: And the Activity (A-375 [19])?
Answer: Its Activity is “Dde”.

Question: What about the Activity (A-375 [20]) of the same compound?
Answer: The Activity was “Active”.

Question: What about the Activity (A-375 [21]) of the same compound?
Answer: Its Activity is 7.88%.

Question: And the Activity [22]?
Answer: Its Activity is “Non-Toxic”.

Question: What about the Activity [23] of the same compound?
Answer: Its Activity is “Non-Toxic”.

Question: What about the inhibition (A-375 [24]) of the same compound?
Answer: The inhibition was “Dde”.

Question: What about the Activity [25] of the same compound?
Answer: Its Activity is “Non-Toxic”.

Question: And the inhibition in vivo at 40 mg/kg (A-375 [26])?
Answer: The inhibition in vivo at 40 mg/kg was 76%.

Question: And the Activity (A-375 [27])?
Answer: Its Activity is “Active”.

Question: What about the Activity (A-375 [28]) of the same compound?
Answer: The Activity was “Active”.
